ChEMBL document CHEMBL3585336, “Synthesis and evaluation of quinazoline amino acid derivatives as mono amine oxidase (MAO) inhibitors” (Bioorg Med Chem, 2015)

Tests used:
Mus musculus [1] = experiment: Acute toxicity in mouse at 300 mg/kg, po after 24 hrs; format: organism-based; settings: in vivo
Mus musculus [2] = experiment: Acute toxicity in mouse at 125 mg/kg, ip after 24 hrs; format: organism-based; settings: in vivo
[3] = molecular target: T1, Amine oxidase [flavin-containing] B (Bos taurus, UniProt P56560); experiment: Inhibition of bovine brain mitochondria MAO-B using benzylamine substrate after 60 mins by fluorimetric method
T1 sequence (P56560 whole entry): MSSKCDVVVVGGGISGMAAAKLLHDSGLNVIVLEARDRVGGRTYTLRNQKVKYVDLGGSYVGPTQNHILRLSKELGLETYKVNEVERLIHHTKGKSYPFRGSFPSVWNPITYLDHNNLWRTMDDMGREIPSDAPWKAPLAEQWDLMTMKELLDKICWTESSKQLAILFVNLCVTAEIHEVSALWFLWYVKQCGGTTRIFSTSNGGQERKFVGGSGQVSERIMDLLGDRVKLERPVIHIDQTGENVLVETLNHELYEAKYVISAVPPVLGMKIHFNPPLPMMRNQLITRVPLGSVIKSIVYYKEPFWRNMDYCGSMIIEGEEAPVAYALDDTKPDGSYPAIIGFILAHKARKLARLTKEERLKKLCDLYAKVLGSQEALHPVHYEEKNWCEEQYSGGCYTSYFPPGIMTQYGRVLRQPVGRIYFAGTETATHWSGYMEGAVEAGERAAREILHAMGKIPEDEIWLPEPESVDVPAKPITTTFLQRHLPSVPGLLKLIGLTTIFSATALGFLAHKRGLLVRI

[4] = molecular target: T2, Amine oxidase [flavin-containing] A (Bos taurus, UniProt P21398); experiment: Inhibition of bovine brain mitochondria MAO-A using serotonin substrate after 60 mins by fluorimetric method
T2 sequence (P21398 whole entry): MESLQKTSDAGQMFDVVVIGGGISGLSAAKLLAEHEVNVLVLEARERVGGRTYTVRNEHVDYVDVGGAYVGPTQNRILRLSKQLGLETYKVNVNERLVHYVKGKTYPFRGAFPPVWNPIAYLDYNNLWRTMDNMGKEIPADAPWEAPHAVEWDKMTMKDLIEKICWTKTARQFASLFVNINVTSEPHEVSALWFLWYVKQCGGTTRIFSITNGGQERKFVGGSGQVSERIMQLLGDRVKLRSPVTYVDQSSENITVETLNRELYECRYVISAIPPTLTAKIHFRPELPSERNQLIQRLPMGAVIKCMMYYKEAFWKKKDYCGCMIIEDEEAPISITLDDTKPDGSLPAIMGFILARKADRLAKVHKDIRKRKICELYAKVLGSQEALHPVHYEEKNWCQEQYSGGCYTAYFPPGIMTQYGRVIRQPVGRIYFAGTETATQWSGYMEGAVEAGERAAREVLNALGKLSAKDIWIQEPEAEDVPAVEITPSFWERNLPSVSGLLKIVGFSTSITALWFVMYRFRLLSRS

Row | Structure (SMILES) | Activity (Mus musculus [1]) | Activity (Mus musculus [2]) | IC50 [3] [µM] | IC50 [4] [µM]
1 | COC(=O)CN1C(=O)c2ccccc2NC1c1ccccc1 (stereo unspecified) | Non-toxic | Non-toxic | – | –
2 | COC(=O)CCN1C(=O)c2ccccc2NC1c1ccc(Cl)cc1 (stereo unspecified) | Non-toxic | Non-toxic | 720 | 0.098
3 | COC(=O)C(C)N1C(=O)c2ccccc2NC1c1ccccc1 (stereo unspecified) | Non-toxic | Non-toxic | 460 | 0.039
4 | COC(=O)C(C)N1C(=O)c2ccccc2NC1c1ccco1 (stereo unspecified) | Non-toxic | Non-toxic | 61 | 0.0082
5 | COC(=O)CNC(=O)c1ccccc1N | Non-toxic | Non-toxic | 850 | 0.052
6 | COC(=O)CN1C(=O)c2ccccc2NC1c1ccc(Cl)cc1 (stereo unspecified) | Non-toxic | Non-toxic | 88 | 0.0036
7 | COC(=O)CCN1C(=O)c2ccccc2NC1c1ccc2c(c1)OCO2 (stereo unspecified) | Non-toxic | Non-toxic | 170 | 0.084
8 | COC(=O)CCCCCNC(=O)c1ccccc1/N=C/c1ccccc1 | Non-toxic | Non-toxic | 540 | 0.064
9 | COC(=O)CCCCCN1C(=O)c2ccccc2NC1c1ccc(Cl)cc1 (stereo unspecified) | Non-toxic | Non-toxic | 290 | 0.044
10 | COC(=O)CCNC(=O)c1ccccc1N | Non-toxic | Non-toxic | 560 | 0.062
11 | NNC(=O)CCN1C(=O)c2ccccc2NC1c1ccc2c(c1)OCO2 (stereo unspecified) | Non-toxic | Non-toxic | 380 | 0.032
12 | NNC(=O)CCN1C(=O)c2ccccc2NC1c1ccccc1 (stereo unspecified) | Non-toxic | Non-toxic | 210 | 0.016
13 | COC(=O)C(C)N1C(=O)c2ccccc2NC1c1ccc2c(c1)OCO2 (stereo unspecified) | Non-toxic | Non-toxic | 86 | 0.0028
14 | NNC(=O)CN1C(=O)c2ccccc2NC1c1ccc(Cl)cc1 (stereo unspecified) | Non-toxic | Non-toxic | 940 | 0.048
15 | NNC(=O)CN1C(=O)c2ccccc2NC1c1ccccc1 (stereo unspecified) | Non-toxic | Non-toxic | 310 | 0.038
16 | COC(=O)CN1C(=O)c2ccccc2NC1c1ccco1 (stereo unspecified) | Non-toxic | Non-toxic | 380 | 0.044
17 | COC(=O)CCCN1C(=O)c2ccccc2NC1c1ccco1 (stereo unspecified) | Non-toxic | Non-toxic | 780 | 0.096
18 | NNC(=O)CN1C(=O)c2ccccc2NC1c1ccc2c(c1)OCO2 (stereo unspecified) | Non-toxic | Non-toxic | 83 | 0.0021
19 | NNC(=O)C(Cc1ccccc1)N1C(=O)c2ccccc2NC1c1ccco1 (stereo unspecified) | Non-toxic | Non-toxic | 220 | 0.028
20 | COC(=O)C(Cc1ccccc1)N1C(=O)c2ccccc2NC1c1ccc(Cl)cc1 (stereo unspecified) | Non-toxic | Non-toxic | 540 | 0.042

Row | Structure (SMILES) | Activity (Mus musculus [1]) | Activity (Mus musculus [2]) | IC50 [3] [µM] | IC50 [4] [µM]
21 | COC(=O)CCCCCNC(=O)c1ccccc1N | Non-toxic | Non-toxic | 440 | 0.056
22 | NNC(=O)CCN1C(=O)c2ccccc2NC1c1ccc(Cl)cc1 (stereo unspecified) | Non-toxic | Non-toxic | 420 | 0.051
23 | COC(=O)[C@H](C)NC(=O)c1ccccc1N | Non-toxic | Non-toxic | 410 | 0.063
24 | COC(=O)CCCN1C(=O)c2ccccc2NC1c1ccc2c(c1)OCO2 (stereo unspecified) | Non-toxic | Non-toxic | 660 | 0.088
25 | COC(=O)CCCN1C(=O)c2ccccc2NC1c1ccccc1 (stereo unspecified) | Non-toxic | Non-toxic | 540 | 0.063
26 | NNC(=O)CN1C(=O)c2ccccc2NC1c1ccco1 (stereo unspecified) | Non-toxic | Non-toxic | 560 | 0.036
27 | CC(C(=O)NN)N1C(=O)c2ccccc2NC1c1ccco1 (stereo unspecified) | Non-toxic | Non-toxic | 310 | 0.032
28 | COC(=O)CCCCCN1C(=O)c2ccccc2NC1c1ccc2c(c1)OCO2 (stereo unspecified) | Non-toxic | Non-toxic | 820 | 0.084
29 | COC(=O)C(Cc1ccccc1)N1C(=O)c2ccccc2NC1c1ccco1 (stereo unspecified) | Non-toxic | Non-toxic | 340 | 0.073
30 | C#CCN(C)CCCOc1ccc(Cl)cc1Cl [CLORGILINE] | Non-toxic | Non-toxic | – | –
31 | COC(=O)CCN1C(=O)c2ccccc2NC1c1ccccc1 (stereo unspecified) | Non-toxic | Non-toxic | 860 | 0.092
32 | COc1ccc(C2Nc3ccccc3C(=O)N2CC(=O)NN)cc1 (stereo unspecified) | Non-toxic | Non-toxic | 890 | 0.082
33 | NNC(=O)CCCN1C(=O)c2ccccc2NC1c1ccc2c(c1)OCO2 (stereo unspecified) | Non-toxic | Non-toxic | 420 | 0.082
34 | COC(=O)CN1C(=O)c2ccccc2NC1c1ccc2c(c1)OCO2 (stereo unspecified) | Non-toxic | Non-toxic | 740 | 0.061
35 | COC(=O)CCCNC(=O)c1ccccc1N | Non-toxic | Non-toxic | 460 | 0.071
36 | NNC(=O)CCCN1C(=O)c2ccccc2NC1c1ccccc1 (stereo unspecified) | Non-toxic | Non-toxic | 370 | 0.047
37 | NNC(=O)C(Cc1ccccc1)N1C(=O)c2ccccc2NC1c1ccc(Cl)cc1 (stereo unspecified) | Non-toxic | Non-toxic | 120 | 0.018
38 | NNC(=O)CCCN1C(=O)c2ccccc2NC1c1ccco1 (stereo unspecified) | Non-toxic | Non-toxic | 270 | 0.036
39 | COC(=O)[C@H](Cc1ccccc1)NC(=O)c1ccccc1N | Non-toxic | Non-toxic | 680 | 0.038
40 | COC(=O)CN1C(=O)c2ccccc2NC1c1ccc(OC)cc1 (stereo unspecified) | Non-toxic | Non-toxic | 560 | 0.048
